Data as given in US20120045393A1 (priority 2009, published 2012).
Non-standard residues stand in square brackets, D forms with d. Residues, ends and D or L forms follow the SMILES beside them. *: point of attachment. DOTA = O=C(O)CN1CCN(CC(=O)O)CCN(CC(=O)*)CCN(CC(=O)O)CC1; Bpa = N[C@@H](Cc1ccc(C(=O)c2ccccc2)cc1)C(=O)O; Ala(4-thiazolyl) = N[C@@H](Cc1cscn1)C(=O)O; d2Nal = N[C@H](Cc1ccc2ccccc2c1)C(=O)O; Nicotinoyl = O=C(c1cccnc1)*; azaGly = NNC(=O)O; Sar = CNCC(=O)O

The compounds below were run on LHRH binding sites on human ovarian cancer cells (EFO-27). Conditions: not given.
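Further: Cell-associated radioactivity on confluent EFO-27 monolayers in 96-well plates, measured by microplate scintillation counting.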

SMILES	EC50 [nM]
CNCC(=O)N[C@@H](CCCNC(=N)N)C(=O)N[C@@H](Cc1c[nH]c2ccccc12)C(=O)N[C@@H](CO)C(=O)N[C@@H](Cc1c[nH]cn1)C(=O)N[C@H](CCCNC(=N)N)C(=O)N[C@@H](Cc1c[nH]c2ccccc12)C(=O)N[C@@H](Cc1ccc(C(=O)c2ccccc2)cc1)C(=O)N1CCC[C@H]1C(=O)NCCCCCNC(=O)CN1CCN(CC(=O)O)CCN(CC(=O)O)CCN(CC(=O)O)CC1 [compound 3085]	400 ± 250
CC(C)C[C@H](NC(=O)[C@H](Cc1c[nH]c2ccccc12)NC(=O)[C@H](CCCNC(=N)N)NC(=O)[C@@H](Cc1ccc2ccccc2c1)NC(=O)CN1CCN(CC(=O)O)CCN(CC(=O)O)CCN(CC(=O)O)CC1)C(=O)N[C@@H](Cc1c[nH]cn1)C(=O)N[C@H](CCCNC(=N)N)C(=O)N[C@@H](Cc1c[nH]c2ccccc12)C(=O)N[C@@H](Cc1ccc(C(=O)c2ccccc2)cc1)C(=O)N1CCC[C@H]1C(=O)NNC(N)=O [compound 3113] ({DOTA}-[d2Nal]RWLH[dR]W[Bpa]P[azaGly]-NH2)	1130
N=C(N)NCCC[C@H](NC(=O)[C@@H](Cc1ccc2ccccc2c1)NC(=O)CN1CCN(CC(=O)O)CCN(CC(=O)O)CCN(CC(=O)O)CC1)C(=O)N[C@@H](Cc1c[nH]c2ccccc12)C(=O)N[C@@H](CO)C(=O)N[C@@H](CCCNC(N)=O)C(=O)N[C@H](CCCNC(=N)N)C(=O)N[C@@H](Cc1c[nH]c2ccccc12)C(=O)N[C@@H](Cc1ccc(C(=O)c2ccccc2)cc1)C(=O)N1CCC[C@H]1C(=O)NNC(N)=O [BRU-3030]	930
CN(CC(=O)N[C@@H](Cc1cscn1)C(=O)N[C@@H](Cc1c[nH]c2ccccc12)C(=O)N[C@@H](CO)C(=O)N[C@@H](Cc1cscn1)C(=O)N[C@H](CCCNC(=N)N)C(=O)N[C@@H](Cc1c[nH]c2ccccc12)C(=O)N[C@@H](Cc1ccc(C(=O)c2ccccc2)cc1)C(=O)N1CCC[C@H]1C(=O)NNC(N)=O)C(=O)CN1CCN(CC(=O)O)CCN(CC(=O)O)CCN(CC(=O)O)CC1 [BRU-2762] ({DOTA}-[Sar][Ala(4-thiazolyl)]WS[Ala(4-thiazolyl)][dR]W[Bpa]P[azaGly]-NH2; C-terminus assumed)	15000
CN(CC(=O)N[C@@H](Cc1c[nH]cn1)C(=O)N[C@@H](Cc1c[nH]c2ccccc12)C(=O)N[C@@H](CO)C(=O)N[C@@H](Cc1c[nH]cn1)C(=O)N[C@H](CCCNC(=N)N)C(=O)N[C@@H](Cc1c[nH]c2ccccc12)C(=O)NC1(C(=O)N2CCC[C@H]2C(=O)NNC(N)=O)Cc2ccccc2C1)C(=O)CN1CCN(CC(=O)O)CCN(CC(=O)O)CCN(CC(=O)O)CC1 [BRU-2764]	4310
N=C(N)NCCC[C@H](NC(=O)[C@@H](Cc1ccc2ccccc2c1)NC(=O)CN1CCN(CC(=O)O)CCN(CC(=O)O)CCN(CC(=O)O)CC1)C(=O)N[C@@H](Cc1c[nH]c2ccccc12)C(=O)N[C@@H](CO)C(=O)N[C@@H](Cc1c[nH]cn1)C(=O)N[C@H](CCCNC(=N)N)C(=O)N[C@@H](Cc1c[nH]c2ccccc12)C(=O)N[C@@H](Cc1ccc(C(=O)c2ccccc2)cc1)C(=O)N1CCC[C@H]1C(=O)NNC(=O)NCCOCCN [compound 3022]	710
CNCC(=O)N[C@@H](CCCNC(=N)N)C(=O)N[C@@H](Cc1c[nH]c2ccccc12)C(=O)N[C@@H](CO)C(=O)N[C@@H](Cc1c[nH]cn1)C(=O)N[C@H](CCCNC(=N)N)C(=O)N[C@@H](Cc1c[nH]c2ccccc12)C(=O)N[C@@H](Cc1ccc(C(=O)c2ccccc2)cc1)C(=O)N1CCC[C@H]1C(=O)NCCOCCOCCNC(=O)CN1CCN(CC(=O)O)CCN(CC(=O)O)CCN(CC(=O)O)CC1 [BRU-3043]	230 to 500
CN(CC(=O)N[C@@H](Cc1c[nH]cn1)C(=O)N[C@@H](Cc1c[nH]c2ccccc12)C(=O)N[C@@H](CO)C(=O)N[C@@H](Cc1c[nH]cn1)C(=O)N[C@H](CCCNC(=N)N)C(=O)N[C@@H](Cc1c[nH]c2ccccc12)C(=O)N[C@H](C(=O)N1CCC[C@H]1C(=O)NNC(N)=O)C1Cc2ccccc2C1)C(=O)CN1CCN(CC(=O)O)CCN(CC(=O)O)CCN(CC(=O)O)CC1 [BRU-2765]	8710
N=C(N)NCCC[C@H](NC(=O)[C@@H](Cc1ccc2ccccc2c1)NC(=O)CN1CCN(CC(=O)O)CCN(CC(=O)O)CCN(CC(=O)O)CC1)C(=O)N[C@@H](Cc1c[nH]c2ccccc12)C(=O)N[C@@H](Cc1ccncc1)C(=O)N[C@@H](Cc1c[nH]cn1)C(=O)N[C@H](CCCNC(=N)N)C(=O)N[C@@H](Cc1c[nH]c2ccccc12)C(=O)N[C@@H](Cc1ccc(C(=O)c2ccccc2)cc1)C(=O)N1CCC[C@H]1C(=O)NNC(N)=O [compound 2957]	840
CN(CC(=O)N[C@@H](Cc1c[nH]cn1)C(=O)N[C@@H](Cc1c[nH]c2ccccc12)C(=O)N[C@@H](CO)C(=O)N[C@@H](Cc1c[nH]cn1)C(=O)N[C@H](CCCNC(=N)N)C(=O)N[C@@H](Cc1c[nH]c2ccccc12)C(=O)N[C@@H](Cc1c[nH]cn1)C(=O)N1CCC[C@H]1C(=O)NNC(N)=O)C(=O)CN1CCN(CC(=O)O)CCN(CC(=O)O)CCN(CC(=O)O)CC1 [BRU-2763] (HELM PEPTIDE1{[O=C(O)CN1CCN(CC(=O)O)CCN(CC(=O)[*:2])CCN(CC(=O)O)CC1].[Sar].H.W.S.H.[dR].W.H.P.[O=C(NN[*:1])[*:2]].[am]}$$$$V2.0)	13600
CN(CC(=O)N[C@@H](Cc1c[nH]cn1)C(=O)N[C@@H](Cc1c[nH]c2ccccc12)C(=O)N[C@@H](CO)C(=O)N[C@@H](Cc1c[nH]cn1)C(=O)N[C@H](CCCNC(=N)N)C(=O)N[C@@H](Cc1c[nH]c2ccccc12)C(=O)N[C@@H](Cc1ccc2ccccc2c1)C(=O)N1CCC[C@H]1C(=O)NNC(N)=O)C(=O)CN1CCN(CC(=O)O)CCN(CC(=O)O)CCN(CC(=O)O)CC1 [BRU-2624]	2010

Same assay, conditions: EFO-27 cells, competition with [125I-Tyr8]BRU-2477, 90 min

SMILES	EC50 [nM]
CN(CC(=O)N[C@@H](Cc1c[nH]cn1)C(=O)N[C@@H](Cc1c[nH]c2ccccc12)C(=O)N[C@@H](CO)C(=O)N[C@@H](Cc1ccc(O)cc1)C(=O)N[C@H](CCCNC(=N)N)C(=O)N[C@@H](Cc1c[nH]c2ccccc12)C(=O)N[C@@H](Cc1ccc(C(=O)c2ccccc2)cc1)C(=O)N1CCC[C@H]1C(=O)NNC(N)=O)C(=O)CN1CCN(CC(=O)O)CCN(CC(=O)O)CCN(CC(=O)O)CC1 [BRU-2668] ({DOTA}-[Sar]HWSY[dR]W[Bpa]P[azaGly]-NH2; C-terminus assumed)	3470
CN(CC(=O)N[C@@H](Cc1c[nH]cn1)C(=O)N[C@@H](Cc1c[nH]c2ccccc12)C(=O)N[C@@H](CO)C(=O)N[C@@H](Cc1c[nH]cn1)C(=O)N[C@H](CO)C(=O)N[C@@H](Cc1c[nH]c2ccccc12)C(=O)N[C@@H](Cc1ccc(C(=O)c2ccccc2)cc1)C(=O)N1CCC[C@H]1C(=O)NNC(N)=O)C(=O)CN1CCN(CC(=O)O)CCN(CC(=O)O)CCN(CC(=O)O)CC1 [compound 2761] ({DOTA}-[Sar]HWSH[dS]W[Bpa]P[azaGly]-NH2)	13600
CN(CC(=O)N[C@@H](Cc1c[nH]cn1)C(=O)N[C@@H](Cc1c[nH]c2ccccc12)C(=O)N[C@@H](CO)C(=O)N[C@@H](Cc1c[nH]cn1)C(=O)N[C@H](CCCNC(=N)N)C(=O)N[C@@H](Cc1c[nH]c2ccccc12)C(=O)N[C@@H](Cc1ccc(C(=O)c2ccccc2)cc1)C(=O)N1CCC[C@H]1C(=O)NNC(N)=O)C(=O)CN1CCN(CC(=O)O)CCN(CC(=O)O)CCN(CC(=O)O)CC1 [BRU-2443]	950
N=C(N)NCCC[C@H](NC(=O)[C@@H](Cc1ccc2ccccc2c1)NC(=O)CN1CCN(CC(=O)O)CCN(CC(=O)O)CCN(CC(=O)O)CC1)C(=O)N[C@@H](Cc1c[nH]c2ccccc12)C(=O)N[C@@H](CO)C(=O)N[C@@H](Cc1c[nH]cn1)C(=O)N[C@H](CCCNC(=N)N)C(=O)N[C@@H](Cc1c[nH]c2ccccc12)C(=O)N[C@@H](Cc1ccc(C(=O)c2ccccc2)cc1)C(=O)N1CCC[C@H]1C(=O)NCC(=O)NCCCCO [compound 2978]	2000
N=C(N)NCCC[C@H](NC(=O)[C@@H](Cc1ccc2ccccc2c1)NC(=O)CN1CCN(CC(=O)O)CCN(CC(=O)O)CCN(CC(=O)O)CC1)C(=O)N[C@@H](Cc1c[nH]c2ccccc12)C(=O)N[C@@H](CO)C(=O)N[C@@H](Cc1c[nH]cn1)C(=O)N[C@H](CCCNC(=N)N)C(=O)N[C@@H](Cc1c[nH]c2ccccc12)C(=O)N[C@@H](Cc1ccc(C(=O)c2ccccc2)cc1)C(=O)N1CCC[C@H]1C(=O)NCC(=O)NCCCO [compound 2987]	2300
CN(CC(=O)N[C@@H](Cc1c[nH]cn1)C(=O)N[C@@H](Cc1c[nH]c2ccccc12)C(=O)N[C@@H](CO)C(=O)N[C@@H](Cc1c[nH]cn1)C(=O)N[C@H](CCCCNC(=O)c1cccnc1)C(=O)N[C@@H](Cc1c[nH]c2ccccc12)C(=O)N[C@@H](Cc1ccc(C(=O)c2ccccc2)cc1)C(=O)N1CCC[C@H]1C(=O)NNC(N)=O)C(=O)CN1CCN(CC(=O)O)CCN(CC(=O)O)CCN(CC(=O)O)CC1 [compound 2671] ({DOTA}-[Sar]HWSH[dK](Nicotinoyl)W[Bpa]P[azaGly]-NH2)	7200
N=C(N)NCCC[C@H](NC(=O)[C@@H](Cc1ccc2ccccc2c1)NC(=O)CN1CCN(CC(=O)O)CCN(CC(=O)O)CCN(CC(=O)O)CC1)C(=O)N[C@@H](Cc1c[nH]c2ccccc12)C(=O)N[C@@H](CO)C(=O)N[C@@H](Cc1c[nH]cn1)C(=O)N[C@H](CCCNC(=N)N)C(=O)N[C@@H](Cc1c[nH]c2ccccc12)C(=O)N[C@@H](Cc1ccc(C(=O)c2ccccc2)cc1)C(=O)N1CC[C@H]1C(=O)NNC(N)=O [compound 2993]	380

Same assay, conditions: Table 5: modifications of amino acids at positions 1 and 2; in vitro binding on EFO-27 cells

SMILES	EC50 [nM]
N=C(N)NCCC[C@@H](NC(=O)[C@H](Cc1c[nH]cn1)NC(=O)[C@H](CO)NC(=O)[C@H](Cc1c[nH]c2ccccc12)NC(=O)[C@H](Cc1c[nH]cn1)NC(=O)[C@@H]1CSCN1C(=O)CNC(=O)CN1CCN(CC(=O)O)CCN(CC(=O)O)CCN(CC(=O)O)CC1)C(=O)N[C@@H](Cc1c[nH]c2ccccc12)C(=O)N[C@@H](Cc1ccc(C(=O)c2ccccc2)cc1)C(=O)N1CCC[C@H]1C(=O)NNC(N)=O [BRU-2728]	3150
N=C(N)NCCC[C@@H](NC(=O)[C@H](Cc1c[nH]cn1)NC(=O)[C@H](CO)NC(=O)[C@H](Cc1c[nH]c2ccccc12)NC(=O)[C@H](Cc1c[nH]cn1)NC(=O)[C@@H](Cc1ccc(O)cc1)NC(=O)CN1CCN(CC(=O)O)CCN(CC(=O)O)CCN(CC(=O)O)CC1)C(=O)N[C@@H](Cc1c[nH]c2ccccc12)C(=O)N[C@@H](Cc1ccc(C(=O)c2ccccc2)cc1)C(=O)N1CCC[C@H]1C(=O)NNC(N)=O [BRU-2870] ({DOTA}-[dY]HWSH[dR]W[Bpa]P[azaGly]-NH2)	10000
